Activity calls are given as the source filed them. The rule behind the calls is not given here.
Assays:
[1] = Toxicity against 1321N1 cells expressing P2Y11 receptor at 1 to 10 uM; assay type: cell-based; conditions: human, 1321-n1, 10 µM
[2] = Toxicity against 1321N1 cells expressing P2Y2 receptor at 1 to 10 uM; assay type: cell-based; conditions: human, 1321-n1, 10 µM
[3] = target: T1, P2Y purinoceptor 11 (Homo sapiens) (UniProt Q96G91); assay: Agonist activity at P2Y11 receptor expressed in 1321N1 cells assessed as cytosolic calcium level at 10 uM relative to GTPgammaS control; assay type: functional, cell-based
T1 sequence (whole entry): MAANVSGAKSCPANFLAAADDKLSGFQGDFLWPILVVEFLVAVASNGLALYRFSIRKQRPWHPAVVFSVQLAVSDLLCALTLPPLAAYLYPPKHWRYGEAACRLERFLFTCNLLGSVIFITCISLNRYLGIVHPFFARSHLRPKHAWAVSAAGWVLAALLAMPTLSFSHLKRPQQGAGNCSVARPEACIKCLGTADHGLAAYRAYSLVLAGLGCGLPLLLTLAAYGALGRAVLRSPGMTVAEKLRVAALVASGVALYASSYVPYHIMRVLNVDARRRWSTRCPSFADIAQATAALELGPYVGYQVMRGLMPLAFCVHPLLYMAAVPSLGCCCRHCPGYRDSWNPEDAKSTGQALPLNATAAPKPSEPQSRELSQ

[4] = Toxicity against 1321N1 cells expressing P2Y1 receptor at 1 to 10 uM; assay type: cell-based; conditions: human, 1321-n1, 10 µM
[5] = target: P2Y purinoceptor 1 (Homo sapiens) (UniProt P47900); assay: Agonist activity at P2Y1 receptor expressed in 1321N1 cells assessed as cytosolic calcium level at 10 uM relative to GTPgammaS control; assay type: functional, cell-based
P2Y purinoceptor 1 (Homo sapiens), sequence (P47900 whole entry): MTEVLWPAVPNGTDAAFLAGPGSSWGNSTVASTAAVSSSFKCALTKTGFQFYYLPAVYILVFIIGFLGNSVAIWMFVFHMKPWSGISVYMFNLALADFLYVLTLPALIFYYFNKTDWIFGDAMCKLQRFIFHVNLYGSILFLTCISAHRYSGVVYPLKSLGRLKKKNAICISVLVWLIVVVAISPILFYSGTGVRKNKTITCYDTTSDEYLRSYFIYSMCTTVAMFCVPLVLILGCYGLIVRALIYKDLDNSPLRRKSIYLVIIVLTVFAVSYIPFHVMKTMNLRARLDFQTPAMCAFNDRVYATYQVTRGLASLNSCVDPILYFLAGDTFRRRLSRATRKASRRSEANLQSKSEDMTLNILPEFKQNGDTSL

[6] = target: T2, P2Y purinoceptor 2 (Homo sapiens, UniProt P41231); assay: Agonist activity at P2Y2 receptor expressed in 1321N1 cells assessed as cytosolic calcium level at 10 uM relative to GTPgammaS control; assay type: functional, cell-based
T2 sequence (P41231 whole entry): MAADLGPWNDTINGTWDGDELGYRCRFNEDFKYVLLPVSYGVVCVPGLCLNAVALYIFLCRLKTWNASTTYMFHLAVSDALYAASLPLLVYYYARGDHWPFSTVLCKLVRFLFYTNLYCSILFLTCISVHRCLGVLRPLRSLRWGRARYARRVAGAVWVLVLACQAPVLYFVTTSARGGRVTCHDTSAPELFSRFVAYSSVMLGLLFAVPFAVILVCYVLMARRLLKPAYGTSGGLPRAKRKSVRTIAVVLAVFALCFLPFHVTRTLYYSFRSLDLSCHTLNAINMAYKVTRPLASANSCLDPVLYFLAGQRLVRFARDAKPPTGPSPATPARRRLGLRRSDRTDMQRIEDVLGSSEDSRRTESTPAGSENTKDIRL

[7] = target: T3, P2Y purinoceptor 11 (Homo sapiens, UniProt Q96G91); assay: Agonist activity at P2Y11 receptor expressed in 1321N1 cells assessed as cytosolic calcium level; assay type: functional, cell-based
T3 sequence (Q96G91 whole entry): T1 sequence (whole entry)

[8] = target: T1, P2Y purinoceptor 11 (Homo sapiens); assay: Agonist activity at P2Y11 receptor expressed in 1321N1 cells assessed as cytosolic calcium level at 1 uM relative to GTPgammaS control; assay type: functional, cell-based
[9] = target: T1, P2Y purinoceptor 11 (Homo sapiens); assay: Agonist activity at P2Y11 receptor expressed in 1321N1 cells assessed as calcium mobilization in presence of 10 uM NF340 at 3.6 uM; assay type: functional, cell-based
[10] = target: T2, P2Y purinoceptor 2; assay: Agonist activity at P2Y2 receptor expressed in 1321N1 cells assessed as cytosolic calcium level; assay type: functional, cell-based
[11] = target: P2Y purinoceptor 1 (Homo sapiens) (UniProt P47900); assay: Agonist activity at P2Y1 receptor expressed in 1321N1 cells assessed as cytosolic calcium level at 1 uM relative to GTPgammaS control; assay type: functional, cell-based
[12] = target: T1, P2Y purinoceptor 11 (Homo sapiens); assay: Agonist activity at P2Y11 receptor expressed in 1321N1 cells assessed as calcium mobilization in presence of 10 uM NF340 at 1 uM; assay type: functional, cell-based
[13] = target: T2, P2Y purinoceptor 2; assay: Agonist activity at P2Y2 receptor expressed in 1321N1 cells assessed as cytosolic calcium level at 1 uM relative to GTPgammaS control; assay type: functional, cell-based

Structure (SMILES) | Activity [3] | Activity [5] | Activity [6] | EC50 [7] [nM] | Activity [8] | Activity [9] | EC50 [10] [nM] | Activity [11] [%] | Activity [12] | Activity [13] [%] | Activity [1] | Activity [2] | Activity [4]
Nc1ncnc2c1ncn2[C@@H]1O[C@H](CO[P@](=O)(O)O[P@](=O)(O)O[P@@](=O)(O)S)[C@@H](O)[C@H]1O |  |  |  | 63.1 |  |  |  |  |  |  |  |  | 
O=S(=O)([O-])OC(=C\c1cc(Br)c2oc(-c3ccc(O)c(Br)c3)cc2c1)/C(=C/c1cc(Br)c2oc(-c3ccc(O)c(Br)c3)cc2c1)OS(=O)(=O)[O-].[Na+].[Na+] [ISO-IANTHERAN A] | Active | Active | Active | 1290 | Active | inactive |  |  |  |  | Non-toxic | Non-toxic | Non-toxic
O=c1ccn([C@@H]2O[C@H](COP(=O)(O)OP(=O)(O)OP(=O)(O)O)[C@@H](O)[C@H]2O)c(=O)[nH]1 [URIDINE TRIPHOSPHATE] |  |  |  |  |  |  | 110 |  |  |  |  |  | 
O=C(O)c1c(-c2ccc(O)c(Br)c2)oc2c(Br)cc(/C=C(OS(=O)(=O)[O-])/C(=C/c3cc(Br)c4oc(-c5ccc(O)c(Br)c5)cc4c3)OS(=O)(=O)[O-])cc12.[Na+].[Na+] [8-CARBOXY-ISO-IANTHERAN A] | 114% | < 5% | < 5% | 479 | 94.6% |  |  | < 5 | inactive | < 5 | Non-toxic | Non-toxic | Non-toxic

The next lines start with results.

Activity [3] | Activity [5] | Activity [6] | EC50 [7] [nM] | Activity [8] | Activity [9] | EC50 [10] [nM] | Activity [11] [%] | Activity [12] | Activity [13] [%] | Structure (SMILES) | Activity [1] | Activity [2] | Activity [4]
< 37.5% | < 37.5% | < 37.5% |  |  |  |  |  |  |  | COc1c(Br)cc(CC(=O)O)cc1Br | Non-toxic | Non-toxic | Non-toxic
< 37.5% | < 37.5% | < 37.5% |  |  |  |  |  |  |  | COc1c(Br)cc(/C=C(\OS(=O)(=O)[O-])C(=O)O)cc1Br.[Na+] | Non-toxic | Non-toxic | Non-toxic
